Where two headings read alike, the source gives them in different places.
How the values were obtained:
hNET = biological target: T1, hNET (Homo sapiens, UniProt P23975); experiment: hNET binding assay (Assay 1); conditions: read-out: NET pKi (converted)
T1 construct: expressed in transfected cells; host or cells: HEK-293 derived cell line, stably transfected; membrane preparation
Experimental: (§1) Membrane radioligand binding assays were used to measure competitive inhibition of labeled ligand (^3H-citalopram or ^3H-nisoxetine or ^3H-WIN35428) binding to membranes prepared from cells expressing the respective human recombinant transporter (hSERT or hNET or hDAT) in order to determine the pKi values of test compounds at the transporters.
(§2) Recombinant human embryonic kidney (HEK-293) derived cell lines stably transfected with hSERT or hNET, respectively, were grown in DMEM medium supplemented with 10% dialyzed FBS (for hSERT) or FBS (for hNET), 100 μg/ml penicillin, 100 μg/ml streptomycin, 2 mM L-glutamine and 250 μg/ml of the aminoglycoside antibiotic G418, in a 5% CO2 humidified incubator at 37° C. When cultures reached 80% confluence, the cells were washed thoroughly in PBS (without Ca^2+ and Mg^2+) and lifted with 5 mM EDTA in PBS. Cells were pelleted by centrifugation, resuspended in lysis buffer (10 mM Tris-HCl, pH 7.5 containing 1 mM EDTA), homogenized, pelleted by centrifugation, then resuspended in 50 mM Tris-HCl, pH 7.5 and 10% sucrose at 4° C. Protein concentration of the membrane suspension was determined using a Bio-Rad Bradford Protein Assay kit. Membranes were snap frozen and stored at −80° C. Chinese hamster ovary membranes expressing hDAT (CHO-DAT) were purchased from PerkinElmer and stored at −80° C.
(§3) Stock solutions (10 mM in DMSO) of test compound were prepared and serial dilutions made using Dilution Buffer (50 mM Tris-HCl, 120 mM NaCl, 5 mM KCl, pH 7.4, 0.1% BSA, 400 μM ascorbic acid).
(§4) Following a 60 minute incubation at 22° C. (or a period sufficient to reach equilibrium), the membranes were harvested by rapid filtration over a 96-well UniFilter GF/B plate, pretreated with 0.3% polyethyleneimine, and washed 6 times with 300 μl wash buffer (50 mM Tris-HCl, 0.9% NaCl, pH 7.5 at 4° C.). Plates were dried overnight at room temperature, ˜45 μl of MicroScint™-20 (Perkin Elmer) added and bound radioactivity quantitated via liquid scintillation spectroscopy. Competitive inhibition curves and saturation isotherms were analyzed using GraphPad Prism Software package (GraphPad Software, Inc., San Diego, Calif.). IC50 values were generated from concentration response curves using the Sigmoidal Dose Response (variable slope) algorithm in Prism GraphPad.

hSERT = biological target: T2, hSERT (Homo sapiens, UniProt P31645); experiment: hSERT binding assay (Assay 1)
T2 construct: expressed in transfected cells; host or cells: HEK-293 derived cell line, stably transfected; membrane preparation
Experimental: as §1, §2, §3, §4

[1] = ratio of SERT Ki to NET Ki from binding assays
[2] = ratio of SERT Ki to NET Ki (binding)

T2 sequence (P31645 whole entry): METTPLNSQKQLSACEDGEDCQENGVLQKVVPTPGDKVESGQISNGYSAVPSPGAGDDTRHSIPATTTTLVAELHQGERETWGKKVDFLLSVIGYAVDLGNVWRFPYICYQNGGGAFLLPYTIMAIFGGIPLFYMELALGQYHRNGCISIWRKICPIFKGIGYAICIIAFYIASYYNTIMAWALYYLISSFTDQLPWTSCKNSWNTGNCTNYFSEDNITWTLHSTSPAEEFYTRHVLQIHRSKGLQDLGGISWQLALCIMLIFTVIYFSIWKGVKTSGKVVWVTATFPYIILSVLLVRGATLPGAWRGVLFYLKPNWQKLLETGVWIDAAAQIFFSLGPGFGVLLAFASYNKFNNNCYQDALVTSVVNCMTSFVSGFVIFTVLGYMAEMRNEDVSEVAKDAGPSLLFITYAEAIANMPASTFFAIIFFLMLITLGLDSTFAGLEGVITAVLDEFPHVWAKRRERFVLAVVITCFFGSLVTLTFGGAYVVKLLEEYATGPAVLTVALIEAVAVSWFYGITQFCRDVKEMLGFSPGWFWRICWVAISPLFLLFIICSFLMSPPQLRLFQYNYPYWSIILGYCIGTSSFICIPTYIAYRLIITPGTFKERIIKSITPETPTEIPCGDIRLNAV
T1 sequence (P23975 whole entry): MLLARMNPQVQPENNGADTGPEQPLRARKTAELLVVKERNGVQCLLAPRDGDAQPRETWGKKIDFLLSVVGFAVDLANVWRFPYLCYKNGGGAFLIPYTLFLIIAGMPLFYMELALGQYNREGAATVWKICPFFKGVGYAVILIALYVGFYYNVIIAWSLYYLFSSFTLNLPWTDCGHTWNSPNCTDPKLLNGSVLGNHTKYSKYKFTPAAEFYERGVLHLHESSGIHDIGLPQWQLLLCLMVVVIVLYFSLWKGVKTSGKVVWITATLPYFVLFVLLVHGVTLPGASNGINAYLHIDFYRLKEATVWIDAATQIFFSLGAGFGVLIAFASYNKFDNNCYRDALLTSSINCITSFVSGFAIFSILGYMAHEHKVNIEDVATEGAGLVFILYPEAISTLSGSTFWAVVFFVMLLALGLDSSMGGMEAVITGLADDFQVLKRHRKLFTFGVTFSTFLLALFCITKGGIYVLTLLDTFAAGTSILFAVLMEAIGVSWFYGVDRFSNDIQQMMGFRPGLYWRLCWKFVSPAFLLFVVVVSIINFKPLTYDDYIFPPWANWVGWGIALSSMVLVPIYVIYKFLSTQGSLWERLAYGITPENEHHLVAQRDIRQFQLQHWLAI

SMILES | Ki (hNET; hNET binding assay) [nM] | SERT Ki/NET Ki (hSERT; [1]) | Ki (hNET; hNET binding) [nM] | SERT Ki/NET Ki (hSERT; [2])
Clc1ccc(Cl)c(OC(c2ccccc2)C2CCNC2)c1 (stereo not shown) [29-11] | 3.98 | 0.2 |  | 
Fc1ccc(Cl)c(OC(c2ccccc2)C2CCNC2)c1 (stereo not shown) [29-12] | 1.58 | 2 |  | 
Cc1ccc(F)cc1OC(c1ccccc1)C1CCNC1 (stereo not shown) [29-15] | 3.98 | 1.3 |  | 
Cc1ccc(F)cc1OC(c1ccccc1)C1CCNC1 (stereo not shown) [29-16] | 1.58 | 7.9 |  | 
COc1ccc(Cl)cc1OC(c1ccccc1)C1CCNC1 (stereo not shown) [29-21] | 3.16 | 1 |  | 
COc1ccc(Cl)cc1OC(c1ccccc1)C1CCNC1 (stereo not shown) [29-22] | 2.51 | 2.5 |  | 
COc1ccc(F)cc1O[C@@H](c1ccccc1)[C@H]1CCNC1 [29-24] | 1 | 34 |  | 
COc1ccc(F)cc1O[C@H](c1ccccc1)[C@@H]1CCNC1 [29-25] | 7.94 | 0.3 |  | 
Fc1cc(F)cc(C(Oc2cc(Cl)ccc2F)C2CCNC2)c1 (stereo not shown) [30-1] | 1.26 | 3.2 |  | 
Fc1cc(F)cc(C(Oc2cc(Cl)ccc2F)C2CCNC2)c1 (stereo not shown) [30-2] | 0.794 | 25 |  | 
Fc1cc(F)cc(C(Oc2cc(Cl)ccc2Cl)C2CCNC2)c1 (stereo not shown) [30-3] | 3.98 | 0.3 |  | 
Fc1cc(F)cc([C@H](Oc2cc(Cl)ccc2Cl)[C@H]2CCNC2)c1 [30-4] | 3.16 | 2.5 |  | 
COc1ccc(F)cc1O[C@@H](c1cc(F)cc(F)c1)[C@H]1CCNC1 [30-5] | 0.501 | 79 |  | 
COc1ccc(F)cc1OC(c1cc(F)cc(F)c1)C1CCNC1 (stereo not shown) [30-6] | 5.01 | 0.4 |  | 
COc1ccc(Cl)cc1OC(c1cccc(Cl)c1)C1CCNC1 (stereo not shown) [30-9] | 7.94 | 0.6 |  | 
Fc1cccc(Cl)c1O[C@@H](c1ccccc1)[C@H]1CCNC1 [31-4] | 0.126 | 40 |  | 
Fc1cccc(Cl)c1O[C@H](c1ccccc1)[C@@H]1CCNC1 [31-5] | 0.631 | 1.3 |  | 
Cc1cccc(F)c1OC(c1ccccc1)C1CCNC1 (stereo not shown) [31-6] | 1.58 | 2 |  | 
Cc1cccc(F)c1O[C@@H](c1ccccc1)[C@H]1CCNC1 [31-7] | 0.2 | 5 |  | 
Cc1cccc(Cl)c1OC(c1ccccc1)C1CCNC1 (stereo not shown) [31-11] | 2 | 1.3 |  | 

SMILES | Ki (hNET; hNET binding assay) [nM] | SERT Ki/NET Ki (hSERT; [1]) | Ki (hNET; hNET binding) [nM] | SERT Ki/NET Ki (hSERT; [2])
Cc1cccc(Cl)c1O[C@@H](c1ccccc1)[C@H]1CCNC1 [31-12] | 1 | 1.6 |  | 
COc1cccc(F)c1OC(c1ccccc1)C1CCNC1 (stereo not shown) [31-15] | 2 | 2 |  | 
COc1cccc(F)c1O[C@@H](c1ccccc1)[C@H]1CCNC1 [31-16] | 0.2 | 79 |  | 
COC(=O)c1cccc(Cl)c1O[C@@H](c1ccccc1)[C@H]1CCNC1 [31-17] | 3.16 | 25 |  | 
Cc1ccc(OC(c2ccccc2)C2CCNC2)cc1F (stereo not shown) [33-2] | 5.01 | 0.1 |  | 
Fc1cc(Cl)cc(OC(c2ccccc2)C2CCNC2)c1 (stereo not shown) [34-5] | 3.16 | 0.1 |  | 
Clc1cc(Br)cc(OC(c2ccccc2)C2CCNC2)c1 (stereo not shown) [34-11] | 2.51 | 0.1 |  | 
Clc1cc(Cl)cc(OC(c2ccccc2Cl)C2CCNC2)c1 (stereo not shown) [35-3] |  |  | 3.16 | 0.1
Fc1ccc(C(Oc2cc(Cl)cc(Cl)c2)C2CCNC2)cc1 (stereo not shown) [35-9] |  |  | 7.94 | 0.1
Cc1ccc(C(Oc2cc(Cl)cc(Cl)c2)C2CCNC2)cc1 (stereo not shown) [35-12] |  |  | 7.94 | 0.1
Fc1cc(F)cc(C(Oc2cc(Cl)cc(Cl)c2)C2CCNC2)c1 (stereo not shown) [35-14] |  |  | 2 | 0.3
Fc1cc(F)cc([C@@H](Oc2cc(Cl)cc(Cl)c2)[C@@H]2CCNC2)c1 [35-17] |  |  | 1.58 | 0.2
Fc1cc(Cl)cc(C(Oc2cc(Cl)cc(Cl)c2)C2CCNC2)c1 (stereo not shown) [35-18] |  |  | 5.01 | 0.5
Cc1cc(F)cc(C(Oc2cc(Cl)cc(Cl)c2)C2CCNC2)c1 (stereo not shown) [35-19] |  |  | 6.31 | 0.4
Fc1ccc(O[C@@H](c2ccccc2)[C@H]2CCNC2)c(F)c1F [36-1] |  |  | 6.31 | 0.8
Fc1c(Cl)ccc(O[C@@H](c2ccccc2)[C@H]2CCNC2)c1F [36-3] |  |  | 6.31 | 0.1
Cc1ccc(OC(c2ccccc2)C2CCNC2)c(F)c1F (stereo not shown) [36-5] |  |  | 1.26 | 0.5
Cc1c(F)ccc(OC(c2ccccc2)C2CCNC2)c1F (stereo not shown) [36-7] |  |  | 5.01 | 0.3
Fc1c(Cl)ccc(OC(c2ccccc2)C2CCNC2)c1Cl (stereo not shown) [36-10] |  |  | 3.16 | 0.1
Fc1cc(F)cc(C(Oc2ccc(F)c(F)c2F)C2CCNC2)c1 (stereo not shown) [37-1] |  |  | 5.01 | 4

SMILES | Ki (hNET; hNET binding assay) [nM] | SERT Ki/NET Ki (hSERT; [1]) | Ki (hNET; hNET binding) [nM] | SERT Ki/NET Ki (hSERT; [2])
Fc1cc(F)c(F)c(O[C@H](c2ccccc2)[C@@H]2CCNC2)c1 [38-1] |  |  | 5.01 | 0.2
Fc1cc(F)c(F)c(OC(c2ccccc2)C2CCNC2)c1 (stereo not shown) [38-2] |  |  | 1.58 | 10
Fc1cc(F)c(F)c(OC(c2ccccc2Cl)C2CCNC2)c1 (stereo not shown) [39-2] |  |  | 6.31 | 0.6
Fc1cc(F)cc(C(Oc2cc(F)cc(F)c2F)C2CCNC2)c1 (stereo not shown) [39-3] |  |  | 6.31 | 0.4
Fc1cc(F)cc(C(Oc2cc(Cl)cc(Cl)c2Cl)C2CCNC2)c1 (stereo not shown) [39-5] |  |  | 3.16 | 0.2
COc1ccc(F)c(OC(c2ccccc2)C2CCNC2)c1F (stereo not shown) [40-4] |  |  | 0.631 | 6.3
COc1ccc(F)c(F)c1O[C@H](c1ccccc1)[C@@H]1CCNC1 [40-8] |  |  | 1 | 1
Fc1ccc(Cl)c(Cl)c1OC(c1ccccc1)C1CCNC1 (stereo not shown) [40-12] |  |  | 0.251 | 1.3
Fc1ccc(Cl)c(Cl)c1OC(c1ccccc1)C1CCNC1 (stereo not shown) [40-13] |  |  | 0.2 | 0.3
Fc1ccc(Cl)c(F)c1OC(c1ccccc1)C1CCNC1 (stereo not shown) [40-14] |  |  | 0.501 | 0.4
Fc1ccc(Cl)c(F)c1OC(c1ccccc1)C1CCNC1 (stereo not shown) [40-15] |  |  | 0.251 | 1.3
Fc1ccc(Cl)c(F)c1O[C@@H](c1ccccc1)[C@H]1CCNC1 [40-16] |  |  | 0.158 | 10
COc1ccc(F)c(Cl)c1O[C@@H](c1ccccc1)[C@H]1CCNC1 [40-22] |  |  | 0.631 | 13
COc1ccc(F)c(Cl)c1OC(c1ccccc1)C1CCNC1 (stereo not shown) [40-23] |  |  | 3.16 | 0.1
Cc1ccc(F)c(O[C@H](c2ccccc2)[C@@H]2CCNC2)c1F [40-24] |  |  | 1.58 | 0.4
Cc1ccc(F)c(OC(c2ccccc2)C2CCNC2)c1F (stereo not shown) [40-25] |  |  | 0.501 | 2
Cc1ccc(F)c(O[C@@H](c2ccccc2)[C@H]2CCNC2)c1F [40-26] |  |  | 0.251 | 20
Cc1ccc(Cl)c(OC(c2ccccc2)C2CCNC2)c1F (stereo not shown) [40-27] |  |  | 0.251 | 5
Cc1ccc(Cl)c(O[C@H](c2ccccc2)[C@@H]2CCNC2)c1F [40-28] |  |  | 0.794 | 0.4

— patent publication US7888386B2, “3-(phenoxyphenylmethyl)pyrrolidine compounds” (Theravance, Inc., priority 2008, dated 2011)
